Reference: patent publication US20250235460A1, “COMBINATION THERAPY USING GLUCOSE-DEPENDENT INSULINOTROPIC POLYPEPTIDE RECEPTOR ANTAGONIST COMPOUNDS AND GLP-1 RECEPTOR AGONIST COMPOUNDS” (Pfizer Inc., priority 2024, published 2025)

Legend:
human GLP-1R [1] = biological target: human GLP-1R (Homo sapiens, UniProt P43220, G168S); test: CHO GLP-1R Clone H6 cAMP HTRF agonist assay (Assay 1, high receptor density); assay type: cell-based; conditions: for EC50: CHO GLP-1R clone H6, cAMP HTRF, geometric mean; for Emax: CHO GLP-1R clone H6, arithmetic mean, relative to saturating GLP-1 (1 μM), read-out: Assay 1 Emax (%)
In short: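 EC50 values are reported as geometric means and Emax as arithmetic means across the listed number of replicates, both given to two significant figures.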

human GLP-1R [2] = biological target: human GLP-1R (Homo sapiens, UniProt P43220, L260F); test: CHO GLP-1R Clone C6 cAMP HTRF agonist assay (Assay 2, low receptor density); assay type: cell-based; conditions: for EC50: CHO GLP-1R clone C6, cAMP HTRF, geometric mean; for Emax: CHO GLP-1R clone C6, arithmetic mean, relative to saturating GLP-1 (1 μM)
From the text: In Table 5 and Table 6, assay data are presented to two (2) significant figures as the geometric mean (EC50s) and arithmetic mean (Emax) based on the number of replicates listed (Number). A blank cell means there was no data for that Example or the Emax was not calculated.

human GLP-1R (Homo sapiens, UniProt P43220, G168S), sequence (P43220 24-463 G168S): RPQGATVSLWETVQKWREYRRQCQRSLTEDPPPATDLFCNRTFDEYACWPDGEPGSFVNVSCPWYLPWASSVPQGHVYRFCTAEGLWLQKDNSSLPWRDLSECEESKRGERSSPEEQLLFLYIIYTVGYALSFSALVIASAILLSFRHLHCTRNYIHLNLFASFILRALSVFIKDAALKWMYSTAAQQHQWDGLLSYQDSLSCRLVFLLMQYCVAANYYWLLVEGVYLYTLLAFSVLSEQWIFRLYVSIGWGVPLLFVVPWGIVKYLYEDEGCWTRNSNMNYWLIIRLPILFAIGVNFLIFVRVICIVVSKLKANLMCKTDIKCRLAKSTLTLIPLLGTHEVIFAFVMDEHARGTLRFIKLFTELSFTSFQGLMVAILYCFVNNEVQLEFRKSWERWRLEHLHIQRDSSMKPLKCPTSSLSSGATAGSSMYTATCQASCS
human GLP-1R (Homo sapiens, UniProt P43220, L260F), sequence (P43220 24-463 L260F): as the sequence (P43220 24-463 G168S) above, with S145G, L237F counted along it

SMILES	EC50 (human GLP-1R [1])	Emax (human GLP-1R [1])	EC50 (human GLP-1R [2])	Emax (human GLP-1R [2])
Cn1c(CN2CCC(c3cccc(OCc4ccc(Cl)cc4)n3)CC2)nc2ccc(C(=O)O)cc21 [Compound 225B, 2-[(4-{6-[(4-chlorobenzyl)oxy]pyridin-2-yl}piperidin-1-yl)methyl]-1-methyl-1H-benzimidazole-6-carboxylic acid]	12 nM	75%	140 nM	82%
Cn1c(CN2CCC(c3cccc(OCc4ccccc4F)n3)CC2)nc2ccc(C(=O)O)cc21 [Compound 226B, 2-[(4-{6-[(2-fluorobenzyl)oxy]pyridin-2-yl}piperidin-1-yl)methyl]-1-methyl-1H-benzimidazole-6-carboxylic acid]	2.7 nM	73%	29 nM	74%
Cn1c(CN2CCC(c3cccc(OCc4ccc(OC(F)(F)F)cc4)n3)CC2)nc2ccc(C(=O)O)cc21 [Compound 228B, 1-methyl-2-{[4-(6-{[4-(trifluoromethoxy)benzyl]oxy}pyridin-2-yl)piperidin-1-yl]methyl}-1H-benzimidazole-6-carboxylic acid]	6 nM	73%	99 nM	81%
Cn1c(CN2CCC(c3cccc(OCc4ccc(C(F)(F)F)cc4)n3)CC2)nc2ccc(C(=O)O)cc21 [Compound 232B, 1-methyl-2-{[4-(6-{[4-(trifluoromethyl)benzyl]oxy}pyridin-2-yl)piperidin-1-yl]methyl}-1H-benzimidazole-6-carboxylic acid]	8.6 nM	64%	140 nM	76%
O=C(O)c1ccc2nc(CN3CCC(c4cccc(OCc5ccc(Cl)cc5F)n4)CC3)n(CCN3CCCC3=O)c2c1 [Compound 239B, 2-[(4-{6-[(4-chloro-2-fluorobenzyl)oxy]pyridin-2-yl}piperidin-1-yl)methyl]-1-[2-(2-oxopyrrolidin-1-yl)ethyl]-1H-benzimidazole-6-carboxylic acid]	1.2 nM	84%	24 nM	98%
CCn1cnnc1Cn1c(CN2CCN(c3cccc(OCc4ccc(Cl)cc4F)n3)C[C@@H]2C)nc2ccc(C(=O)O)cc21 [Compound 245B, 2-{[(2S)-4-{6-[(4-chloro-2-fluorobenzyl)oxy]pyridin-2-yl}-2-methylpiperazin-1-yl]methyl}-1-[(4-ethyl-4H-1,2,4-triazol-3-yl)methyl]-1H-benzimidazole-6-carboxylic acid]	1.5 nM	74%	35 nM	89%
N#Cc1ccc(COc2cccc(C3CCN(Cc4nc5ccc(C(=O)O)nc5n4Cc4cnco4)CC3)n2)c(F)c1 [Compound 248B, 2-[(4-{6-[(4-cyano-2-fluorobenzyl)oxy]pyridin-2-yl}piperidin-1-yl)methyl]-3-(1,3-oxazol-5-ylmethyl)-3H-imidazo[4,5-b]pyridine-5-carboxylic acid]	2 nM	82%	32 nM	79%
C[C@H]1CN(c2cccc(OCc3ccc(C#N)cc3F)n2)CCN1Cc1nc2ccc(C(=O)O)cc2n1Cc1cncn1C [Compound 249B, 2-{[(2S)-4-{6-[(4-cyano-2-fluorobenzyl)oxy]pyridin-2-yl}-2-methylpiperazin-1-yl]methyl}-1-[(1-methyl-1H-imidazol-5-yl)methyl]-1H-benzimidazole-6-carboxylic acid]	1.6 nM	84%	35 nM	78%
CC1(Cn2c(CN3CCC(c4cccc(OCc5ccc(Cl)cc5F)n4)CC3)nc3ccc(C(=O)O)cc32)COC1 [Compound 251B, 2-[(4-{6-[(4-chloro-2-fluorobenzyl)oxy]pyridin-2-yl}piperidin-1-yl)methyl]-1-[(3-methyloxetan-3-yl)methyl]-1H-benzimidazole-6-carboxylic acid]	0.59 nM	83%	6.8 nM	93%
Cc1nnc(Cn2c(CN3CCC(c4cccc(OCc5ccc(Cl)cc5F)n4)CC3)nc3ccc(C(=O)O)cc32)o1 [Compound 254B, 2-[(4-{6-[(4-chloro-2-fluorobenzyl)oxy]pyridin-2-yl}piperidin-1-yl)methyl]-1-[(5-methyl-1,3,4-oxadiazol-2-yl)methyl]-1H-benzimidazole-6-carboxylic acid]	5 nM	65%	72 nM	87%
Cn1ccnc1Cn1c(CN2CCC(c3cccc(OCc4ccc(Cl)cc4F)n3)CC2)nc2ccc(C(=O)O)cc21 [Compound 256B, 2-[(4-{6-[(4-chloro-2-fluorobenzyl)oxy]pyridin-2-yl}piperidin-1-yl)methyl]-1-[(1-methyl-1H-imidazol-2-yl)methyl]-1H-benzimidazole-6-carboxylic acid]	3.4 nM	79%	53 nM	68%

Further compounds by falling EC50 (human GLP-1R [1]), results first:

EC50 (human GLP-1R [1])	Emax (human GLP-1R [1])	EC50 (human GLP-1R [2])	Emax (human GLP-1R [2])	SMILES
190 nM	62%	5800 nM	85%	Cn1cnc(Cn2c(CN3CCC(c4cccc(OCc5ccc(Cl)cc5F)n4)CC3)nc3ccc(C(=O)O)cc32)c1 [Compound 255B, 2-[(4-{6-[(4-chloro-2-fluorobenzyl)oxy]pyridin-2-yl}piperidin-1-yl)methyl]-1-[(1-methyl-1H-imidazol-4-yl)methyl]-1H-benzimidazole-6-carboxylic acid]
31 nM	81%	460 nM	66%	Cc1nnc(Cn2c(CN3CCC(c4cccc(OCc5ccc(Cl)cc5F)n4)CC3)nc3ccc(C(=O)O)cc32)n1C [Compound 244B, 2-[(4-{6-[(4-chloro-2-fluorobenzyl)oxy]pyridin-2-yl}piperidin-1-yl)methyl]-1-[(4,5-dimethyl-4H-1,2,4-triazol-3-yl)methyl]-1H-benzimidazole-6-carboxylic acid]
9.4 nM	69%	160 nM	71%	C[C@H]1CN(c2cccc(OCc3ccc(C#N)cc3F)n2)CCN1Cc1nc2ccc(C(=O)O)cc2n1Cc1cocn1 [Compound 241B, 2-{[(2S)-4-{6-[(4-cyano-2-fluorobenzyl)oxy]pyridin-2-yl}-2-methylpiperazin-1-yl]methyl}-1-(1,3-oxazol-4-ylmethyl)-1H-benzimidazole-6-carboxylic acid]
4.7 nM	71%	84 nM	83%	CN1CC(Cn2c(CN3CCC(c4cccc(OCc5ccc(Cl)cc5F)n4)CC3)nc3ccc(C(=O)O)cc32)C1 [Compound 243B, 2-[(4-{6-[(4-chloro-2-fluorobenzyl)oxy]pyridin-2-yl}piperidin-1-yl)methyl]-1-[(1-methylazetidin-3-yl)methyl]-1H-benzimidazole-6-carboxylic acid]
4 nM	64%	48 nM	79%	Cn1c(CN2CCC(c3cccc(OCc4cccc(F)c4F)n3)CC2)nc2ccc(C(=O)O)cc21 [Compound 227B, 2-[(4-{6-[(2,3-difluorobenzyl)oxy]pyridin-2-yl}piperidin-1-yl)methyl]-1-methyl-1H-benzimidazole-6-carboxylic acid]
3.2 nM	68%	39 nM	88%	CCn1cnnc1Cn1c(CN2CCC(c3cccc(OCc4ccc(Cl)cc4F)n3)CC2)nc2ccc(C(=O)O)cc21 [Compound 237B, 2-[(4-{6-[(4-chloro-2-fluorobenzyl)oxy]pyridin-2-yl}piperidin-1-yl)methyl]-1-[(4-ethyl-4H-1,2,4-triazol-3-yl)methyl]-1H-benzimidazole-6-carboxylic acid]
2 nM	84%	20 nM	87%	Cc1nnc(CCn2c(CN3CCC(c4cccc(OCc5ccc(Cl)cc5F)n4)CC3)nc3ccc(C(=O)O)cc32)o1 [Compound 253B, 2-[(4-{6-[(4-chloro-2-fluorobenzyl)oxy]pyridin-2-yl}piperidin-1-yl)methyl]-1-[2-(5-methyl-1,3,4-oxadiazol-2-yl)ethyl]-1H-benzimidazole-6-carboxylic acid]
1 nM	76%	19 nM	75%	Cn1c(CN2CCC(c3cccc(OCc4ccccc4OC(F)(F)F)n3)CC2)nc2ccc(C(=O)O)cc21 [Compound 229B, 1-methyl-2-{[4-(6-{[2-(trifluoromethoxy)benzyl]oxy}pyridin-2-yl)piperidin-1-yl]methyl}-1H-benzimidazole-6-carboxylic acid]
0.71 nM	81%	11 nM	100%	CN(C)CCn1c(CN2CCC(c3cccc(OCc4ccc(Cl)cc4F)n3)CC2)nc2ccc(C(=O)O)cc21 [Compound 238B, 2-[(4-{6-[(4-chloro-2-fluorobenzyl)oxy]pyridin-2-yl}piperidin-1-yl)methyl]-1-[2-(dimethylamino)ethyl]-1H-benzimidazole-6-carboxylic acid]
0.56 nM	73%	9.6 nM	84%	Cn1c(CN2CCC(c3cccc(OCc4cc(F)ccc4F)n3)CC2)nc2ccc(C(=O)O)cc21 [Compound 233B, 2-[(4-{6-[(2,5-difluorobenzyl)oxy]pyridin-2-yl}piperidin-1-yl)methyl]-1-methyl-1H-benzimidazole-6-carboxylic acid]
0.3 nM	80%	4.4 nM	95%	Cn1c(CN2CCC(c3cccc(OCc4cccc(C#N)c4)n3)CC2)nc2ccc(C(=O)O)cc21 [Compound 231B, 2-[(4-{6-[(3-cyanobenzyl)oxy]pyridin-2-yl}piperidin-1-yl)methyl]-1-methyl-1H-benzimidazole-6-carboxylic acid]
